# From patent US8222416B2, “Azaindole glucokinase activators” (Hoffmann-La Roche Inc., priority 2009, dated 2012)
# Biological target: T1, Recombinant human liver GK1 (GST-GK) (Homo sapiens, UniProt P35557)
# T1 construct: made in house; host or cells: E. coli
# T1 sequence (P35557 1-466 isoform P35557-2): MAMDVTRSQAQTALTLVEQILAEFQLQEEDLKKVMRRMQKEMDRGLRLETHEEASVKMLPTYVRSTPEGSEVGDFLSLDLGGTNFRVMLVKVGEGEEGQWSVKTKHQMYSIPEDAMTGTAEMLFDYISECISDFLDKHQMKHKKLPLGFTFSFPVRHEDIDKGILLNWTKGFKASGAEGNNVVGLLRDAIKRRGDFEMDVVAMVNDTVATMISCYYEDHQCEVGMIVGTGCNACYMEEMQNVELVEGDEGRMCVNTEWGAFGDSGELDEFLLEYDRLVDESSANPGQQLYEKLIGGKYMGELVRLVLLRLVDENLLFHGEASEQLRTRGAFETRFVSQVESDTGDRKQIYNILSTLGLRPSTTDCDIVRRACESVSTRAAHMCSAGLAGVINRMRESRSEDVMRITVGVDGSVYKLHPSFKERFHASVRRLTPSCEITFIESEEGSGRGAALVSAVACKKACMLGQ
# Assay: In vitro glucokinase activity assay (G6PDH-coupled, NADH, OD340)
# Type: biochemical
# Details: at 30 μM
# Protocol: Glucokinase In Vitro Assay Protocol: Glucokinase (GK) was assayed by coupling the production of glucose-6-phosphate to the generation of NADH with glucose-6-phosphate dehydrogenase (G6PDH, 0.75-1 kunits/mg; Boehringer Mannheim, Indianapolis, Ind.) from Leuconostoc mesenteroides as the coupling enzyme (Scheme 2).
# Recombinant human liver GK1 was expressed in E. coli as a glutathione S-transferase fusion protein (GST-GK) [Liang et al, 1995] and was purified by chromatography over a glutathione-Sepharose 4B affinity column using the procedure provided by the manufacturer (Amersham Pharmacia Biotech, Piscataway, N.J.).
# The assay was conducted at 30° C. in a flat bottom 96-well tissue culture plate from Costar (Cambridge, Mass.) with a final incubation volume of 120 μL. The incubation reaction contained the following: 25 mM Hepes buffer (pH 7.1), 25 mM KCl, 5 mM D-glucose, 1 mM ATP, 1.8 mM NAD, 2 mM MgCl2, 1 μM sorbitol-6-phosphate, 1 mM dithiothreitol, test drug or 10% dimethylsulfoxide, ˜7 units/ml G6PDH, and GK (see below). All organic reagents were >98% pure and were from Boehringer Mannheim with the exceptions of D-glucose and Hepes which were from Sigma Chemical Co, St Louis, Mo. Test compounds were dissolved in dimethylsulfoxide and were added to the incubation reaction minus GST-GK in a volume of 12 μL to yield a final dimethylsulfoxide concentration of 10%. This mix was pre-incubated in the temperature controlled chamber of a SPECTRAmax 250 microplate spectrophotometer (Molecular Devices Corporation, Sunnyvale, Calif.) for 10 minutes to allow temperature equilibrium and then the reaction was started by the addition of 20 μL GST-GK.
# After addition of enzyme, the increase in optical density (OD) at 340 nm was monitored spectrophotometrically to determine the rate of change (OD340 per min). The GK activity (OD340/min) in control wells (10% dimethylsulfoxide minus GK activators) was compared with the activity in wells containing test GK activators, and the concentration of activator that produced a 50% increase in the activity of GK, i.e., the SC1.5, was calculated.
row,fold activation of GK,SMILES
1,1.4 fold at 30,"CCS(=O)(=O)c1cnc2[nH]c(C(CC3CCCC3)c3ccc(S(C)(=O)=O)cc3)cc2c1 (centres unmarked) [Example 125, 2-[2-Cyclopentyl-1-(4-methanesulfonyl-phenyl)-ethyl]-5-ethanesulfonyl-1H-pyrrolo[2,3-b]pyridine]"
2,1.4 fold at 30,"CCC(O)(CC)c1ccc(C(CC2CCCC2)c2cc3cccnc3[nH]2)cc1 (centres unmarked) [Example 83, 3-{4-[2-Cyclopentyl-1-(1H-pyrrolo[2,3-b]pyridin-2-yl)-ethyl]-phenyl}-pentan-3-ol]"

# Same assay, conditions: concentration of activator that produced a 50% increase in the activity of GK; 5 mM D-glucose, 30° C.
row,SMILES,SC1.5
1,"COc1ccc2cc(C(CC3CCCC3)c3ccc(S(C)(=O)=O)cc3)[nH]c2n1 (centres unmarked) [Example 113, 2-[2-Cyclopentyl-1-(4-methanesulfonyl-phenyl)-ethyl]-6-methoxy-1H-pyrrolo[2,3-b]pyridine]",1.8 µM
2,COc1ccc(C(CC2CCCC2)c2cc3cccnc3[nH]2)cn1 (centres unmarked) [Example 61],3.0 µM
3,"CC(C)(O)c1ccc([C@@H](CC2CCCC2)c2cc3cccnc3[nH]2)cc1F (single isomer, unassigned) [Example 96]",0.144 µM
4,"CC(=O)c1ccc(C(CC2CCCC2)c2cc3cccnc3[nH]2)cc1 (centres unmarked) [Example 80, 1-{4-[2-Cyclopentyl-1-(1H-pyrrolo[2,3-b]pyridin-2-yl)-ethyl]-phenyl}-ethanone]",2.6 µM
5,"CS(=O)(=O)c1ccc(/C(=C\C2CCCC2)c2cc3cc(F)cnc3[nH]2)cc1 [Example 116, 2-[(E)-2-cyclopentyl-1-(4-methanesulfonyl-phenyl)-vinyl]-5-fluoro-1H-pyrrolo[2,3-b]pyridine]",0.009 µM
6,"CS(=O)(=O)c1ccc(/C(=C\C2CCCO2)c2cc3cccnc3[nH]2)cc1 (centres unmarked) [Example 70, (E)-2-[1-(4-Methanesulfonyl-phenyl)-2-(tetrahydro-furan-2-yl)-vinyl]-1H-pyrrolo[2,3-b]pyridine]",0.082 µM
7,"CC(C)CC(c1cccc(Cl)c1)c1cc2cccnc2[nH]1 (centres unmarked) [Example 131, 2-(1-(3-Chloro-phenyl)-3-methyl-butyl)-1H-pyrrolo[2,3-b]pyridine]",9.9 µM
8,"CC(C)CC(c1cccc(F)c1)c1cc2cccnc2[nH]1 (centres unmarked) [Example 132, 2-(1-(3-Fluoro-phenyl)-3-methyl-butyl)-1H-pyrrolo[2,3-b]pyridine]",10.9 µM
9,"CCOCCS(=O)(=O)c1ccc(C(CC2CCCC2)c2cc3cccnc3[nH]2)cc1 (centres unmarked) [Example 90, 2-{2-Cyclopentyl-1-[4-(2-ethoxy-ethanesulfonyl)-phenyl]-ethyl}-1H-pyrrolo[2,3-b]pyridine]",0.73 µM
10,"CCOc1cccc(C(CC(C)C)c2cc3cccnc3[nH]2)c1 (centres unmarked) [Example 133, 2-(1-(3-Ethoxy-phenyl)-3-methyl-butyl)-1H-pyrrolo[2,3-b]pyridine]",25.0 µM
11,"CS(=O)(=O)c1ccc(C(O)(CC2CCCC2)c2cc3cc(F)cnc3[nH]2)cc1 (centres unmarked) [Example 48, 2-Cyclopentyl-1-(5-fluoro-1H-pyrrolo[2,3-b]pyridin-2-yl)-1-(4-methanesulfonyl-phenyl)-ethanol]",0.654 µM
12,"CS(=O)(=O)c1ccc(C(O)(CC2CCC2)c2cc3cccnc3[nH]2)cc1C(F)(F)F (centres unmarked) [Example 76, 2-Cyclobutyl-1-(4-methanesulfonyl-3-trifluoromethyl-phenyl)-1-(1H-pyrrolo[2,3-b]pyridin-2-yl)-ethanol]",14.9 µM
13,"COc1cnc2[nH]c(/C(=C/C3CCCO3)c3ccc(S(C)(=O)=O)cc3)cc2c1 (centres unmarked) [Example 21, 2-[(E)-1-(4-Methanesulfonyl-phenyl)-2-(tetrahydro-furan-2-yl)-vinyl]-5-methoxy-1H-pyrrolo[2,3-b]pyridine]",0.821 µM
14,"CC(C)(O)c1ccc(C(CC2CCCC2)c2cc3cc(C(=O)O)cnc3[nH]2)cc1F (centres unmarked) [Example 57, 2-{2-Cyclopentyl-1-[3-fluoro-4-(1-hydroxy-1-methyl-ethyl)-phenyl]-ethyl}-1H-pyrrolo[2,3-b]pyridin-5-carboxylic acid]",22.3 µM
15,"CS(=O)(=O)c1ccc(C(CC2CCC2)c2cc3cccnc3[nH]2)cc1C(F)(F)F (centres unmarked) [Example 77, 2-[2-Cyclobutyl-1-(4-methanesulfonyl-3-trifluoromethyl-phenyl)-ethyl]-1H-pyrrolo[2,3-b]pyridine]",0.692 µM
16,"CC(C)(C)/C=C(\c1ccc(S(C)(=O)=O)cc1)c1cc2cccnc2[nH]1 [Example 73, 2-[(E)-1-(4-Methanesulfonyl-phenyl)-3,3-dimethyl-but-1-enyl]-1H-pyrrolo[2,3-b]pyridine]",0.653 µM
17,O=S(=O)(CCO)c1ccc(C(CC2CCCC2)c2cc3cccnc3[nH]2)cc1 (centres unmarked) [Example 91],0.832 µM

# The next lines start with the values.
row,SC1.5,SMILES
1,0.85 µM,"Cc1cnc2[nH]c(C(CC3CCCC3)c3ccc(S(C)(=O)=O)cc3)cc2c1 (centres unmarked) [Example 128, 2-[2-Cyclopentyl-1-(4-methanesulfonyl-phenyl)-ethyl]-5-methyl-1H-pyrrolo[2,3-b]pyridine]"
2,0.451 µM,"COCCOc1cnc2[nH]c(C(CC3CCCC3)c3ccc(S(C)(=O)=O)cc3)cc2c1 (centres unmarked) [Example 15, 2-[2-Cyclopentyl-1-(4-methanesulfonyl-phenyl)-ethyl]-5-(2-methoxy-ethoxy)-1H-pyrrolo[2,3-b]pyridine]"
3,9.1 µM,"CN(C)C(=O)Cc1cnc2[nH]c(C(CC3CCCC3)c3ccc(S(C)(=O)=O)cc3)cc2c1 (centres unmarked) [Example 39, 2-{2-[2-Cyclopentyl-1-(4-methanesulfonyl-phenyl)-ethyl]-1H-pyrrolo[2,3-b]pyridin-5-yl}-N,N-dimethyl-acetamide]"
4,14.9 µM,"CS(=O)(=O)c1ccc(C(CC2CCCC2)c2cc3cc(CCCO)cnc3[nH]2)cc1 (centres unmarked) [Example 45, 3-{2-[2-Cyclopentyl-1-(4-methanesulfonyl-phenyl)-ethyl]-1H-pyrrolo[2,3-b]pyridin-5-yl}-propan-1-ol]"
5,2.0 µM,"CS(=O)(=O)c1ccc(C(CC2CCCC2)c2cc3cc(C(F)(F)F)cnc3[nH]2)cc1 (centres unmarked) [Example 126, 2-[2-Cyclopentyl-1-(4-methanesulfonyl-phenyl)-ethyl]-5-trifluoromethyl-1H-pyrrolo[2,3-b]pyridine]"
6,25.6 µM,"CS(=O)(=O)c1ccc(C(CC2CCCC2)c2cc3cc(C(O)CO)cnc3[nH]2)cc1 (centres unmarked) [Example 7, 1-{2-[2-Cyclopentyl-1-(4-methanesulfonyl-phenyl)-ethyl]-1H-pyrrolo[2,3-b]pyridin-5-yl}-ethane-1,2-diol]"
7,1.9 µM,COc1cnc2[nH]c(C(CC3CCOCC3)c3ccc(S(C)(=O)=O)cc3)cc2c1 (centres unmarked) [Example 31]
8,1.0 µM,"CNC(=O)c1cnc2[nH]c([C@H](CC3CCCC3)c3ccc(S(C)(=O)=O)cc3)cc2c1 [Example 6, 2-[2-Cyclopentyl-1(R)-(4-methanesulfonyl-phenyl)-ethyl]-1H-pyrrolo[2,3-b]pyridin-5-carboxylic acid methylamide]"
9,3.4 µM,"CS(=O)(=O)c1ccc([C@@H](CC2CCCC2)c2cc3cc(C(=O)O)cnc3[nH]2)cc1 (single isomer, unassigned) [Example 56]"
10,13.5 µM,"CC(C)(Oc1cnc2[nH]c(C(CC3CCCC3)c3ccc(S(C)(=O)=O)cc3)cc2c1)C(=O)O (centres unmarked) [Example 27, 2-{2-[2-Cyclopentyl-1-(4-methanesulfonyl-phenyl)-ethyl]-1H-pyrrolo[2,3-b]pyridin-5-yloxy}-2-methyl-propionic acid]"
